Assay results: US5811445A, “Method of preventing abnormal stimulation of AT1 and AT2 receptors” (Roussel Uclaf, priority 1994, dated 1998)
Where a name gives a salt, the structure may show the parent alone. Read-outs that look alike come from different tables or passages of the source.

What was measured:
[1] = molecular target: T1, AT1 receptor of angiotensin II (Rattus norvegicus, UniProt P25095); test: Test on the AT1 receptor of angiotensin II (displacement of 125I angiotensin II, rat liver membranes); type: binding
T1 construct: A fresh membrane preparation obtained from rat's liver is used; from tissue; host or cells: rat liver membranes
T1 sequence (P25095 1-359): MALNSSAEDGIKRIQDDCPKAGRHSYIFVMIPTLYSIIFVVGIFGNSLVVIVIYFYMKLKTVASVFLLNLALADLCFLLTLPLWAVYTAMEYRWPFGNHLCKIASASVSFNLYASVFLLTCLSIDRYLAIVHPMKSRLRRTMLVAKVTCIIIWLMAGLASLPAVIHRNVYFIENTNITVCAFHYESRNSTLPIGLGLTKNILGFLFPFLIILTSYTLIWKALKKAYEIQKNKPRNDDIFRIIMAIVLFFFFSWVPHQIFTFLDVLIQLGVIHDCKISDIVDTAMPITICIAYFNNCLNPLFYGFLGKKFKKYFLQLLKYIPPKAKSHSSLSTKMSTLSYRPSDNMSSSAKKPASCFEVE
Protocol: 1 - Test on the AT1 -receptor of angiotensin II
A fresh membrane preparation obtained from rat's liver is used. The tissue is ground up in a polytron in a 50 mM Tris buffer pH 7.4, the grinding is followed by 3 centrifugations at 30,000 g for 15 minutes with intermediate take up of the pellets in the Tris buffer pH 7.4.
(§1) (The product is first tested with 3×10^-5 M three times). When the tested product displaces more than 50% of the radioactivity specifically bound to the receptor, it is tested again according to a range of 7 concentrations in order to determine the concentration which inhibits by 50% the radioactivity specifically bound to the receptor. In this way the 50% inhibitory concentration is determined).
(§2) After incubation at 25° C. for 150 minutes, placing in a water-bath at 0° C. for 5 minutes, filtration under vacuum, and rinsing with Tris buffer pH 7.4, the radioactivity is counted in the presence of a scintillating solid.

[2] = molecular target: T2, AT2 receptor of angiotensin II (Oryctolagus cuniculus, UniProt G1T351); test: Test on the AT2 receptor of angiotensin II (displacement of 125I angiotensin II, rabbit uterus membranes); type: binding
T2 construct: A fresh membrane preparation obtained from rabbit's uterus is used; from tissue; host or cells: uterus membranes of estradiol-treated rabbits
T2 sequence (G1T351 1-363): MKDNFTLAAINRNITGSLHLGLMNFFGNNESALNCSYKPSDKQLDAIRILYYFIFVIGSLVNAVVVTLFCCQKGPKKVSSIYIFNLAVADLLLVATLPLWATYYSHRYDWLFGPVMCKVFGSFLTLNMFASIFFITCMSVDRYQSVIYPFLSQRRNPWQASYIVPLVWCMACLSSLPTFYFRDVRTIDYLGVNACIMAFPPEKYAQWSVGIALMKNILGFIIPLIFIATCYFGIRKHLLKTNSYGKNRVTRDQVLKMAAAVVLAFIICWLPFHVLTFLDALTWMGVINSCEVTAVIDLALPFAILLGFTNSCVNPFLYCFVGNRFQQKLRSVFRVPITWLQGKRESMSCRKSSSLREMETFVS
Protocol: 2) Test on the AT2 receptor of angiotensin II
The tissue is ground up in a polytron in a 50 mM Tris buffer pH 7.4, and the grinding is followed by 3 centrifugations at 30,000 g for 15 minutes, with intermediate take up of the pellets in the Tris buffer pH 7.4.
The homogenate obtained is preincubated for 20 minutes at 25° C. in the presence of 10 mM dithiothreitol, then brought back to 0°-4° C.
as §1, with “The” for “(The”, “at 3.10^-5” for “with 3×10^-5”, “times.” for “times).”, “determined.” for “determined).”
as §2

[3] = rat liver membrane, 125I angiotensin II, 25° C., 150 minutes, read-out: AT1 Receptor IC50
[4] = rabbit uterus membrane (estradiol pre-treated), 125I angiotensin II, 25° C., 150 minutes, read-out: AT2 Receptor IC50
[5] = products P1 to P13, expressed in nM, read-out: On AT1 receptor IC50
[6] = products P1 to P13, expressed in nM, read-out: On AT2 receptor IC50

| SMILES | IC50 [1, 3] [nM] | IC50 [2, 4] [nM] | IC50 [1, 5] [nM] | IC50 [2, 6] [nM] |
| --- | --- | --- | --- | --- |
| CCCc1nc(SC)c(C(O)(C(=O)O)c2ccccc2)n1Cc1ccc(-c2ccccc2S(=O)(=O)NC(=O)NCc2ccccc2)cc1 (stereo not drawn) [Example 34, alpha-hydroxy 4-(methylthio) alpha-phenyl 1-((2'-(((((phenylmethyl)amino)carbonyl)amino)sulphonyl) (1,1'-biphenyl) 4-yl)methyl) 2-propyl 1H-imidazole 5-acetic acid] | 0.7 | 2.1 |  |  |
| CCc1nc(SC)c(C(=O)O)n1Cc1ccc(-c2ccccc2S(=O)(=O)NC(=O)NCC2CCCCC2)cc1 [Example 69, potassium 1-((2'-(((((cyclohexylmethyl)amino)carbonyl)amino)sulphonyl) (1,1'-biphenyl 4-yl)methyl) 2-ethyl 4-(methylthio) 1H-imidazole 5-carboxylate (potassium salt)] |  | 1.3 |  |  |
| CCCCc1nc(SC)c(C(=O)O)n1Cc1ccc(-c2ccccc2S(=O)(=O)NC(=O)OCc2cccs2)cc1 [Example P8, 2-butyl 4-(methylthio) 1-[(2'-((((2-thienyl)methoxycarbonyl)amino)sulphonyl) (1,1'-biphenyl) 4-yl)methyl] 1H-imidazole 5-carboxylic acid] |  |  | 0.14 | 17 |
| CCCCc1nc(SC)c(C(=O)O)n1Cc1ccc(-c2ccccc2S(=O)(=O)NC(=O)NCc2ccccc2)cc1 [Example P2, 2-butyl 4-(methylthio) 1-[(2'-(((((phenylmethyl)amino)carbonyl)amino)sulphonyl) (1,1'-biphenyl) 4-yl)methyl] 1H-imidazole 5-carboxylic acid] |  |  | 0.1 | 14 |
| CCCCc1nc(SC)c(C(=O)O)n1Cc1ccc(-c2ccccc2S(=O)(=O)NC(=O)OCc2ccccc2)cc1 [Example P12, 2-butyl 4-(methylthio) 1-[(2'-(((phenylmethoxycarbonyl)amino)sulphonyl) (1,1'-biphenyl) 4-yl)methyl] 1H-imidazole 5-carboxylic acid] |  |  | 0.8 | 54 |
| CCCCc1nc(SC)c(C(C)(O)C(=O)O)n1Cc1ccc(-c2ccccc2S(=O)(=O)NC(=O)NCCC)cc1 (stereo not drawn) [Example 9, 2-butyl alpha-hydroxy alpha-methyl 4-(methylthio) 1-[(2'-((((propylamino)carbonyl)amino)sulphonyl) (1,1'-biphenyl) 4-yl)methyl] 1H-imidazole 5-acetic acid] | 3.4 | 8.5 |  |  |
| CCCc1nc(SC)c(C(O)C(=O)O)n1Cc1ccc(-c2ccccc2S(=O)(=O)NC(=O)NCc2ccccc2)cc1 (stereo not drawn) [Example 21] | 2.5 | 6.5 |  |  |
| CCCCc1nc(SC)c(C(=O)O)n1Cc1ccc(-c2ccccc2S(=O)(=O)NC(=O)NCc2ccc(OC)cc2)cc1 [Example P5, 2-butyl 1-[(2'-((((((4-methoxy)phenylmethyl)amino)carbonyl)amino)sulphonyl) (1,1'-biphenyl) 4-yl)methyl] 4-methylthio 1H-imidazole 5-carboxylic acid] |  |  | 0.3 | 25 |
| CCCCc1nc(SC)c(C(=O)O)n1Cc1ccc(-c2ccccc2S(=O)(=O)NC(=O)NCCCCc2ccccc2)cc1 [Example P4, 2-butyl 4-(methylthio) 1-[(^2 '-(((((1-(4-phenylbutyl))amino)carbonyl)amino)sulphonyl) (1,1'-biphenyl) 4-yl)methyl] 1H-imidazole 5-carboxylic acid] |  |  | 0.5 | 47 |
| CCCCc1nc(SC)c(C(C)(O)C(=O)O)n1Cc1ccc(-c2ccccc2S(=O)(=O)NC(=O)NCc2ccccc2)cc1 (stereo not drawn) [Example 11] | 24 | 1.6 |  |  |
| CCCCc1nc(SC)c(C(C)(O)C(=O)O)n1Cc1ccc(-c2ccccc2S(=O)(=O)NC(=O)NCC2CCCCC2)cc1 (stereo not drawn) [Example 13, 2-butyl 1-[(2'-(((((cyclohexylmethyl)amino)arbonyl)amino)sulphonyl) (1,1'-biphenyl) 4-yl)methyl] alpha-hydroxy alpha-methyl 4-(methylthio) 1H-imidazole 5-acetic acid] | 6.3 | 1.9 |  |  |
| CCCCc1nc(SC)c(C(=O)O)n1Cc1ccc(-c2ccccc2S(=O)(=O)NC(=O)OCC2CC=CCC2)cc1 (stereo not drawn) [Example P10, 2-butyl 1-[(2'-((((cyclohexen 4-yl)methoxycarbonyl)amino)sulphonyl) (1,1'-biphenyl) 4-yl)methyl] 4-methylthio 1H-imidazole 5-carboxylic acid] |  |  | 0.7 | 31 |
| CCCCc1nc(OC)c(C=O)n1Cc1ccc(-c2ccccc2S(=O)(=O)NC(=O)OCc2ccccc2)cc1 [Example P13, (phenylmethyl) ((4'-((2-butyl 5-formyl 4-methoxy 1H-imidazol 1-yl)methyl) (1,1'-biphenyl) 2-yl)sulphonyl) carbamate] |  |  | 5.9 | 63 |
| CCCc1nc(SC(F)F)c(C(=O)O)n1Cc1ccc(-c2ccccc2S(=O)(=O)NC(=O)NCCC2=CCCCC2)cc1 [Example 56, 1-((2'-(((((2-cyclohexen-1-yl-ethyl)amino)carbonyl)amino)sulphonyl) (1,1'-biphenyl) 4-yl)methyl) 4-((difluoromethyl)thio) 2-propyl 1H-imidazole 5-carboxylic acid] |  | 5.8 |  |  |
| CCCc1nc(SC)c(C(=O)O)n1Cc1ccc(-c2ccccc2S(=O)(=O)NC(=O)Nc2ccc(C)cc2)cc1 [Example 63, 1-((2'-(((((4-methylphenyl)amino)carbonyl)amino)sulphonyl) (1,1'-biphenyl) 4-yl)methyl) 4-(methylthio) 2-propyl 1H-imidazole 5-carboxylic acid] |  | 3.5 |  |  |
| CCCCc1nc(SC)c(C(=O)O)n1Cc1ccc(-c2ccccc2S(=O)(=O)NC(=O)OCC2CCCCC2)cc1 [Example P11, 2-butyl 1-[(2'-((((cyclohexyl)methoxycarbonyl)amino)sulphonyl) (1,1'-biphenyl) 4-yl)methyl] 4-methylthio 1H-imidazole 5-carboxylic acid] |  |  | 0.14 | 24 |
| CCCCc1nc(SC)c(C(=O)O)n1Cc1ccc(-c2ccccc2S(=O)(=O)NC(=O)NCC(C)c2ccccc2)cc1 (stereo not drawn) [Example P3, 2-butyl 4-(methylthio) 1-[(2'-(((((1-beta-phenylpropyl)amino)carbonyl)amino)sulphonyl) (1,1'-biphenyl) 4-yl)methyl] 1H-imidazole 5-carboxylic acid] |  |  | 1.1 | 11 |
| CCCCc1nc(SC)c(C(=O)O)n1Cc1ccc(-c2ccccc2S(=O)(=O)NC(=O)OCc2ccsc2)cc1 [Example P9, 2-butyl 4-(methylthio) 1-[(2'-((((3-thienyl)methoxycarbonyl)amino)sulphonyl) (1,1'-biphenyl) 4-yl)methyl] 1H-imidazole 5-carboxylic acid] |  |  | 0.19 | 53 |
| CCCc1nc(SC(F)F)c(C(=O)O)n1Cc1ccc(-c2ccccc2S(=O)(=O)NC(=O)CCC2CCCC2)cc1 [Example 54] |  | 2.1 |  |  |
| CCCCc1nc(Cl)c(C(=O)O)n1Cc1ccc(-c2ccccc2S(=O)(=O)NC(=O)NCc2ccccc2)cc1 [Example 59] | 0.08 |  |  |  |
| CCc1nc(SC)c(C(=O)O)n1Cc1ccc(-c2ccccc2S(=O)(=O)NC(=O)NCc2ccccc2)cc1 [Example 44, 2-ethyl 4-(methylthio) 1-((2'-(((((phenylmethyl)amino)carbonyl)amino)sulphonyl) (1,1'-biphenyl) 4-yl)methyl) 1H-imidazole 5-carboxylic acid] | 0.06 |  |  |  |
